The source of these data is ChEMBL document CHEMBL1126087, “(E)-1,3-dialkyl-7-methyl-8-(3,4,5-trimethoxystyryl)xanthines: potent and selective adenosine A2 antagonists” (J Med Chem, 1992).

What is called Ki is a measure of affinity in units of concentration, obtained from inhibition or displacement. Lower therefore signals tighter binding.

Series [1] has as its target T1, Adenosine receptor A1 (Cavia porcellus, UniProt P47745).
T1 sequence (P47745 whole entry): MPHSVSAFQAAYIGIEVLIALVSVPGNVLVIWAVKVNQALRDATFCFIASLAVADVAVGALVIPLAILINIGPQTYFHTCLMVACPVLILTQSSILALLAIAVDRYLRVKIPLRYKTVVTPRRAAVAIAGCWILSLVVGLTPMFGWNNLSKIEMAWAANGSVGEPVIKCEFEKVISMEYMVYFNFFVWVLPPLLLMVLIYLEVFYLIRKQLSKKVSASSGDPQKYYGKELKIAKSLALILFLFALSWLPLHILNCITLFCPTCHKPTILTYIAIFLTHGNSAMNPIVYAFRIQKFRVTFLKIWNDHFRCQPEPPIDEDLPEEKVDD
Description: Binding affinity against adenosine A1 receptor from guinea pig forebrain membranes, using N6-[3H]cyclohexyladenosine as radioligand.

In a further series the target is Adenosine A2 receptor (Rattus norvegicus, UniProt P29276+P30543).
Series [2] has as its target T2, Adenosine receptor A1 (Rattus norvegicus, UniProt P25099).
T2 sequence (P25099 whole entry): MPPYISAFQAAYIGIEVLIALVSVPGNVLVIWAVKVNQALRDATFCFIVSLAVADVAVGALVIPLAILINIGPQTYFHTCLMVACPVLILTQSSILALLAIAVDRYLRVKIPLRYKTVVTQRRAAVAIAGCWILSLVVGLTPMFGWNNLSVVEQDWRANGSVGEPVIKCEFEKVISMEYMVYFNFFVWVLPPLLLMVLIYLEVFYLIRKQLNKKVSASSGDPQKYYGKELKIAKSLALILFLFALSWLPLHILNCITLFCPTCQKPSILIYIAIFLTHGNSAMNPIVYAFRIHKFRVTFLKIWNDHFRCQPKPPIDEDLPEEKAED

The target in series [3] is T2, Adenosine receptor A1. The series is classed as cell membranes, Membrane.
Series [4] can be described thus: Water solubility of the compound. The series is classed as ADME. Particulars: read-out: S.
For series [5], the target named is Adenosine receptor A2a (Homo sapiens) (UniProt P29274).
Adenosine receptor A2a (Homo sapiens), sequence (P29274 whole entry, looked up): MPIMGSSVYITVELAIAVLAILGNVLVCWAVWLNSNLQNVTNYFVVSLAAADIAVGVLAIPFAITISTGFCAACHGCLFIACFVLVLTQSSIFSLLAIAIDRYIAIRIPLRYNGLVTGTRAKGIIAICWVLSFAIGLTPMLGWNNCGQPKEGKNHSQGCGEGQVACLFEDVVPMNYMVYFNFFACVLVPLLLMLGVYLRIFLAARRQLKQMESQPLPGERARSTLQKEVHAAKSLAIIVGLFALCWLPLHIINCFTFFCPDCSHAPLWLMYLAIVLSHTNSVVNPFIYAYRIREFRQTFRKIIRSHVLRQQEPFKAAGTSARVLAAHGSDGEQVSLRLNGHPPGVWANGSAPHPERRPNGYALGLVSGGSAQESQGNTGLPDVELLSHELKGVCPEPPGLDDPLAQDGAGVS

As for `CCCn1c(=O)c2nc(CCc3ccccc3)[nH]c2n(CCC)c1=O`, the Ki ratio in the series listed under Cavia porcellus was determined as 0.09. The inhibitory constant (Ki) was determined as 560 nM on Adenosine receptor A1 [1] and 6200 nM on Adenosine A2 receptor.

In the case of `CCCn1c(=O)c2nc(-c3ccc(S(=O)(=O)N(C)CCN(C)C)cc3)[nH]c2n(CCC)c1=O`, the Ki ratio in the series listed under Cavia porcellus was 5.4.

Take `CCCn1c(=O)c2nc(/C=C/c3ccc(Cl)c(Cl)c3)[nH]c2n(CCC)c1=O`: the inhibitory constant (Ki) at Adenosine receptor A1 [1] and on Adenosine A2 receptor was more than 100000 nM each time.

As for `CCCn1c(=O)c2nc(/C(C)=C/c3ccccc3)[nH]c2n(CCC)c1=O`, the Ki is more than 100000 nM at Adenosine receptor A1 [1] and more than 10000 nM at Adenosine A2 receptor.

For `CCCn1c(=O)c2c(nc(/C(C)=C/c3ccccc3)n2C)n(CCC)c1=O`, the Ki at Adenosine receptor A1 [1] and on Adenosine A2 receptor was more than 10000 nM in each case.

As for `CCCCn1c(=O)c2nc(/C=C/c3cc(OC)c(OC)c(OC)c3)[nH]c2n(CCCC)c1=O`, the Ki ratio in the series listed under Cavia porcellus was 15. For the same molecule, the inhibitory constant (Ki) was determined as 1400 nM on Adenosine receptor A1 [1] and 93 nM at Adenosine A2 receptor.

Molecule `COc1cc(/C=C/c2nc3c(c(=O)n(C)c(=O)n3C)n2C)cc(OC)c1OC` registered a Ki on Adenosine receptor A1 [1] of more than 100000 nM.

As to `COc1cc(/C=C/c2nc3c(=O)n(C)c(=O)n(C)c3[nH]2)cc(OC)c1OC`, the inhibition constant Ki at Adenosine receptor A1 [1] was more than 100000 nM.

In turn, `CCCn1c(=O)c2[nH]c(CCC3CCCC3)nc2n(CCC)c1=O` gave an inhibition constant Ki at Adenosine receptor A1 [1] of 320 nM.

On to `CCCn1c(=O)c2c(nc(CCC3CCCC3)n2C)n(CCC)c1=O`, for which the Ki was 1300 nM on Adenosine receptor A1 [1] and more than 10000 nM on Adenosine A2 receptor.

Regarding `CCCn1c(=O)[nH]c(=O)c2[nH]c(/C=C/c3cc(OC)c(OC)c(OC)c3)nc21`, the Ki ratio in the series listed under Cavia porcellus is 0.37. The Ki on Adenosine receptor A1 [1] came out at 820 nM; on Adenosine A2 receptor, 2200 nM.

As for `CCCn1c(=O)c2c(nc(/C=C/c3ccccc3)n2C)n(CCC)c1=O`, the inhibition constant Ki on Adenosine receptor A1 [2] was determined as 220 nM; on Adenosine receptor A1 [1], 720 nM; on Adenosine A2 receptor it was 15 nM. Also, in the series filed under Cavia porcellus, the Ki ratio stood at 48.

Take `CCCn1c(=O)c2c(nc(/C=C/c3ccc(Cl)cc3)n2C)n(CCC)c1=O`: the inhibitory constant (Ki) was more than 10000 nM on Adenosine receptor A1 [1] and 49 nM on Adenosine A2 receptor.

Regarding `CCCn1c(=O)c2nc(/C=C/c3ccc(OC)cc3)[nH]c2n(CCC)c1=O`, the inhibition constant Ki is more than 100000 nM at Adenosine receptor A1 [1] and 110 nM at Adenosine A2 receptor.

With `CCCn1c(=O)c2c(nc(/C=C/c3ccc(OC)cc3)n2C)n(CCC)c1=O`, the inhibition constant (Ki) came out at 340 nM on Adenosine receptor A1 [2], 1400 nM on Adenosine receptor A1 [1] and 18 nM at Adenosine A2 receptor. Also, in the series filed under Cavia porcellus, the Ki ratio was found to be 78.

Turning to `CCCn1c(=O)c2nc(/C=C/c3ccc(OC)c(OC)c3)[nH]c2n(CCC)c1=O`, at Adenosine receptor A1 [1], the inhibition constant (Ki) worked out at 1700 nM.

Take `CCCn1c(=O)c2c(nc(/C=C/c3ccc(Cl)c(Cl)c3)n2C)n(CCC)c1=O`: the Ki on Adenosine receptor A1 [1] was more than 100000 nM; at Adenosine A2 receptor, 7500 nM.

`CCCn1c(=O)c2[nH]c(-c3ccc(S(=O)(=O)N(C)CCN(C)C)cc3)nc2n(CCC)c1=O`: the values for the inhibition constant (Ki) on Adenosine receptor A1 [3] and on Adenosine receptor A1 [1] were 13.9 nM and 140 nM, respectively.

For the molecule `CCCn1c(=O)c2c(nc(CCc3ccccc3)n2C)n(CCC)c1=O`, the Ki ratio in the series filed under Cavia porcellus was determined as 0.59. For the same molecule, the inhibition constant Ki was 1300 nM on Adenosine receptor A1 [1] and 2200 nM at Adenosine A2 receptor.

`C=CCn1c(=O)c2c(nc(/C=C/c3cc(OC)c(OC)c(OC)c3)n2C)n(CC=C)c1=O`: the Ki at Adenosine receptor A1 [1] was more than 100000 nM.

Regarding `CCCn1c(=O)c2nc(C/C=C/c3ccccc3)[nH]c2n(CCC)c1=O`, the Ki ratio in the series filed under Cavia porcellus came out at 0.54. The Ki came to 870 nM on Adenosine receptor A1 [1] and 1600 nM at Adenosine A2 receptor.

`CCCCn1c(=O)c2c(nc(/C=C/c3cc(OC)c(OC)c(OC)c3)n2C)n(CCCC)c1=O`: the Ki ratio in the series filed under Cavia porcellus came out at 44. For the same molecule, the results for the Ki on Adenosine receptor A1 [1] and at Adenosine A2 receptor were 2300 nM and 52 nM, respectively.

Turning to `CCCn1c(=O)c2c(nc(/C=C/c3cc(OC)c(OC)c(OC)c3)n2C)n(CCC)c1=O`, the inhibition constant Ki at Adenosine receptor A1 [2] amounted to 1100 nM; at Adenosine receptor A1 [1] it was 2100 nM; at Adenosine A2 receptor, 14 nM. In addition, the Ki ratio in the series listed under Cavia porcellus was determined as 150.

On to `CCCn1c(=O)c2nc(/C=C/c3ccc(Cl)cc3)[nH]c2n(CCC)c1=O`, for which the Ki at Adenosine receptor A1 [1] and at Adenosine A2 receptor was more than 100000 nM each time.

As to `C=CCn1c(=O)c2nc(/C=C/c3cc(OC)c(OC)c(OC)c3)[nH]c2n(CC=C)c1=O`, the Ki ratio in the series listed under Cavia porcellus was more than 2100. The inhibition constant (Ki) at Adenosine receptor A1 [1] was more than 100000 nM; on Adenosine A2 receptor it was 47 nM.

Consider `CCCn1c(=O)c2c(nc(C/C=C/c3ccccc3)n2C)n(CCC)c1=O`, for which the Ki ratio in the series filed under Cavia porcellus came to 1.9. The inhibitory constant (Ki) turned out to be 3500 nM at Adenosine receptor A1 [1] and 1800 nM at Adenosine A2 receptor.

As for `CCCn1c(=O)c2c(nc(/C=C/c3ccc(OC)c(OC)c3)n2C)n(CCC)c1=O`, the solubility in series [4] was less than 10 µg/mL. For the same molecule, the Ki on Adenosine receptor A1 [2] turned out to be 430 nM.

Regarding `CCCn1c(=O)c2nc(/C=C/c3ccccc3)[nH]c2n(CCC)c1=O`, the inhibition constant Ki worked out at 1800 nM at Adenosine receptor A1 [1] and 26 nM on Adenosine A2 receptor.

For `CCCn1c(=O)c2c(nc(C3CCCC3)n2C)n(CCC)c1=O`, the Ki ratio in the series filed under Cavia porcellus was found to be 0.26. Further, the figures for the Ki on Adenosine receptor A1 [1] and on Adenosine A2 receptor were 8100 nM and more than 100000 nM, respectively. The same molecule came in with a Kb in series [5] of 220 nM.

As to `CCCn1c(=O)c2nc(CCC3CCCC3)[nH]c2n(CCC)c1=O`, the Ki ratio in the series listed under Cavia porcellus amounted to 0.053. Further, the Ki on Adenosine A2 receptor was 6000 nM.
